In ChEMBL document CHEMBL4130506, “Design, synthesis and biological evaluation of N-(4-alkoxy-3-cyanophenyl)isonicotinamide/nicotinamide derivatives as novel xanthine oxidase inhibitors” (Eur J Med Chem, 2017):

Experiments:
[1] = biological target: T1, Xanthine dehydrogenase/oxidase (Bos taurus, UniProt P80457); assay: Inhibition of bovine xanthine oxidase assessed as reduction in uric acid formation using xanthine as substrate preincubated for 10 mins followed by substrate addition by UV spectrophotometric method
T1 sequence (P80457 whole entry): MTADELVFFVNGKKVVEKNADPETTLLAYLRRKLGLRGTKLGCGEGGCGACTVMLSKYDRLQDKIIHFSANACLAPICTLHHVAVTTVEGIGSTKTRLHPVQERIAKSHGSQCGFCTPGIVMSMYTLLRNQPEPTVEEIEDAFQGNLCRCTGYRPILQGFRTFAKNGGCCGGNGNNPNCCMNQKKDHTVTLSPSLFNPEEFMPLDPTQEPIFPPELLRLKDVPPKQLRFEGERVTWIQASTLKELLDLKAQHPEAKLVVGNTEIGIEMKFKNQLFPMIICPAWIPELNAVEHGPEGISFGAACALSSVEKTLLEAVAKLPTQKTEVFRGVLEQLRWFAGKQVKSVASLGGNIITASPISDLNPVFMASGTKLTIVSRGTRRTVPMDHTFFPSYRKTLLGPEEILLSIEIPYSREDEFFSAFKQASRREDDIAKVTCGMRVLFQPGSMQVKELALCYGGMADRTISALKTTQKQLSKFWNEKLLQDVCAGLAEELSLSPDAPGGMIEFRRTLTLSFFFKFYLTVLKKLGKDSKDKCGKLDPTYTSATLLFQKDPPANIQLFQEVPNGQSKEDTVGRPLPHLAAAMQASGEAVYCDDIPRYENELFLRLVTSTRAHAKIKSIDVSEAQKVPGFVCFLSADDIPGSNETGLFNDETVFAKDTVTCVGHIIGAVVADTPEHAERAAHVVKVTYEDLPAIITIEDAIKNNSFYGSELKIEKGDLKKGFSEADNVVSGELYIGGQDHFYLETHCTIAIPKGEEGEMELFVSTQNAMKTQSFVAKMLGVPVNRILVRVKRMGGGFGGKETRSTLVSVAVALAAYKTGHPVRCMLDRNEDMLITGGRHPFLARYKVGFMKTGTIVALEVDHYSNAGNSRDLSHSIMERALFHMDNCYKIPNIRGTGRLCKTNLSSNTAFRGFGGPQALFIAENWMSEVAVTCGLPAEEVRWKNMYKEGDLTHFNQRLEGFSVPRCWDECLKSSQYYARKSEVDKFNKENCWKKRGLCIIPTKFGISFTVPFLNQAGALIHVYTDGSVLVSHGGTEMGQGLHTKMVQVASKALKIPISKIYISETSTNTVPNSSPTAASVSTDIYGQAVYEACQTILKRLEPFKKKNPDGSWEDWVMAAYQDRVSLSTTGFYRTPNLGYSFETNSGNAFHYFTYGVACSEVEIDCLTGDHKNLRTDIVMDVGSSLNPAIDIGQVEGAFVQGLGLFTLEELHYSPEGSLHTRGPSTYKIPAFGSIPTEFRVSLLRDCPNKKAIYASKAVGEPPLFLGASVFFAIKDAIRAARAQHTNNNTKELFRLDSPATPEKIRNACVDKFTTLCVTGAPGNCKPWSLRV

[2] = biological target: T1, Xanthine dehydrogenase/oxidase; assay: Inhibition of bovine xanthine oxidase assessed as reduction in uric acid formation at 50 uM using xanthine as substrate preincubated for 10 mins followed by substrate addition by UV spectrophotometric method; conditions: cattle
[3] = biological target: T1, Xanthine dehydrogenase/oxidase; assay: Potency index, ratio of allopurinol IC50 to test compound IC50 for bovine xanthine oxidase; conditions: cattle
[4] = biological target: T1, Xanthine dehydrogenase/oxidase; assay: Mixed inhibition of bovine xanthine oxidase assessed as reduction in uric acid formation up to 0.6 uM using xanthine as substrate preincubated for 10 mins followed by substrate addition by Lineweaver-Burk plot analysis; conditions: cattle

N#Cc1cc(NC(=O)c2cccnc2)ccc1OCc1ccccc1
IC50 [1]: 32800 nM

N#Cc1cc(NC(=O)c2ccncc2)ccc1OC1CCCC1
IC50 [1]: 5700 nM

CCCCCCCOc1ccc(NC(=O)c2cccnc2)cc1C#N
inhibition at 50 µM [2]: < 60%

N#Cc1cc(NC(=O)c2ccccn2)ccc1OCc1ccc(Cl)cc1
inhibition at 50 µM [2]: < 60%

N#Cc1cc(NC(=O)c2ccncc2)ccc1OCc1ccccc1
IC50 [1]: 900 nM

CCCCCCOc1ccc(NC(=O)c2ccncc2)cc1C#N
IC50 [1]: 2700 nM

COCCOc1ccc(NC(=O)c2ccncc2)cc1C#N
inhibition at 50 µM [2]: < 60%

N#Cc1ccc(COc2ccc(NC(=O)c3cccnc3)cc2C#N)cc1
inhibition at 50 µM [2]: < 60%

CCCCCCCCOc1ccc(NC(=O)c2ccncc2)cc1C#N
IC50 [1]: 19200 nM

COc1ccc(COc2ccc(NC(=O)c3ccncc3)cc2C#N)cc1
IC50 [1]: 600 nM

CC(C)Oc1ccc(NC(=O)c2ccncc2)cc1C#N
IC50 [1]: 9500 nM

CC(C)COc1ccc(NC(=O)c2ccccn2)cc1C#N
inhibition at 50 µM [2]: < 60%

CC(C)COc1ccc(NC(=O)c2ccncc2)cc1C#N
IC50 [1]: 1600 nM | Ratio IC50 [3]: 5.3

COc1ccccc1COc1ccc(NC(=O)c2ccncc2)cc1C#N
IC50 [1]: 1800 nM

CC(C)COc1ccc(NC(=O)c2cccnc2)cc1C#N
inhibition at 50 µM [2]: < 60%

CCC(C)Oc1ccc(NC(=O)c2cccnc2)cc1C#N (centres undefined)
inhibition at 50 µM [2]: < 60%

CCCCCOc1ccc(NC(=O)c2cccnc2)cc1C#N
inhibition at 50 µM [2]: < 60%

CCCCOc1ccc(NC(=O)c2ccncc2)cc1C#N
IC50 [1]: 2300 nM

N#Cc1cc(-c2n[nH]c(-c3ccncc3)n2)ccn1 [TOPIROXOSTAT]
IC50 [1]: 15 nM

CCCCOc1ccc(NC(=O)c2ccccn2)cc1C#N
inhibition at 50 µM [2]: < 60%

CCCOc1ccc(NC(=O)c2cccnc2)cc1C#N
inhibition at 50 µM [2]: < 60%

CCCCCCOc1ccc(NC(=O)c2cccnc2)cc1C#N
inhibition at 50 µM [2]: < 60%

N#Cc1ccccc1COc1ccc(NC(=O)c2ccncc2)cc1C#N
IC50 [1]: 300 nM | inhibition (INH) [4]: Active | Ratio IC50 [3]: 28.3

N#Cc1cccc(COc2ccc(NC(=O)c3ccncc3)cc2C#N)c1
IC50 [1]: 2000 nM

N#Cc1cc(NC(=O)c2ccccn2)ccc1OCc1ccccc1
IC50 [1]: 22600 nM

N#Cc1cc(NC(=O)c2cccnc2)ccc1OCc1ccc(Cl)cc1
inhibition at 50 µM [2]: < 60%

CCCCCOc1ccc(NC(=O)c2ccncc2)cc1C#N
IC50 [1]: 3000 nM

N#Cc1cc(NC(=O)c2ccccc2)ccc1OCc1ccccc1
inhibition at 50 µM [2]: < 60%

CC(C)CCOc1ccc(NC(=O)c2cccnc2)cc1C#N
IC50 [1]: 35000 nM

COCCOc1ccc(NC(=O)c2cccnc2)cc1C#N
inhibition at 50 µM [2]: < 60%

N#Cc1cc(NC(=O)c2cccnc2)ccc1OC1CCCC1
inhibition at 50 µM [2]: < 60%

CCC(C)Oc1ccc(NC(=O)c2ccncc2)cc1C#N (centres undefined)
IC50 [1]: 6100 nM

CC(C)CCOc1ccc(NC(=O)c2ccncc2)cc1C#N
IC50 [1]: 2000 nM

CC(C)CCOc1ccc(NC(=O)c2ccccn2)cc1C#N
inhibition at 50 µM [2]: < 60%

CC(C)Oc1ccc(NC(=O)c2cccnc2)cc1C#N
inhibition at 50 µM [2]: < 60%

N#Cc1ccc(COc2ccc(NC(=O)c3ccncc3)cc2C#N)cc1
IC50 [1]: 2300 nM

CCCCCCCOc1ccc(NC(=O)c2ccncc2)cc1C#N
IC50 [1]: 5000 nM

CCCCOc1ccc(NC(=O)c2cccnc2)cc1C#N
inhibition at 50 µM [2]: < 60%

N#Cc1cc(NC(=O)c2ccncc2)ccc1OCc1ccc(Cl)cc1
IC50 [1]: 800 nM

CCCCCCCCOc1ccc(NC(=O)c2cccnc2)cc1C#N
inhibition at 50 µM [2]: < 60%

CCCOc1ccc(NC(=O)c2ccncc2)cc1C#N
IC50 [1]: 3900 nM
